Source: patent US12178846B2, “Methods of using gap junctions as therapeutic targets for the treatment of degenerative disorders of the retina” (The Research Foundation for The State University of New York, priority 2014, dated 2024)

Columns and labels:
[1] = tested on: RGCs in microbead-injected eyes; assay: Microbead-induced experimental glaucoma; format: in vivo, mouse
Description: Experimental glaucoma in mice is induced by IOP elevation achieved by intracameral injections of 10 μm polystyrene microbeads (Invitrogen) as previously described (Chen H, et al., Invest Ophthalmol Vis Sci. 52:36-44 (2011)). The intracameral injections are made unilaterally with 2 μl of microbead suspension containing ˜7.2×106 beads using a glass micropipette attached to a microliter syringe. An equivalent volume of phosphate-buffered saline (PBS) is injected in contralateral eyes to serve as a control. Measurements of IOP are made with the commercially-available Tonolab tonometer (Colonial Medical Supply) and are performed weekly for up to 8 weeks after the microbeads injection. Measurements are made between […] and 12 PM, to minimize the effect of diurnal IOP variations. Six IOP measurements are made at each interval and averaged. Experimental glaucoma was induced by intracameral injections of polystyrene microbeads (Chen H, et al., Invest Ophthalmol Vis Sci. 52:36-44 (2011)) in one eye of wild type (WT) mice, connexin knockout (KO) mice and their […] (HET) control littermates, with sham injection of the second eye as control. IOP measurements were performed weekly and animals were sacrificed at 1, 4, or 8 weeks after initial bead injection. To access cell loss, RGCs and coupled ACs were retrogradely labeled with optic nerve injection of Neurobiotin and vertical retinal sections were counterstained with DAPI to determine overall nuclear counts. RGCs were also labeled by Brn3a antibody for identification. In addition to cell counts, overall retinal damage was assessed by GFAP expression. In some experiments gap junctions were blocked with meclofenamic acid (MFA) intravitreal weekly injections or genetically ablated in connexin KO mice (Cx36^−/−, Cx45^−/−, and Cx36^−/−/Cx45^−/− mice). Data are presented as mean±standard mean error. […] Statistical comparisons were assessed using Student's t-test. […]

[2] = tested on: cells in the GCL of mouse retinas; assay: NMDA-induced excitotoxic cell death in the GCL of retina-eyecups; format: cell-based
Description: All animal procedures were in compliance with the NIH Guide for the Care and Use of Laboratory Animals and approved by the Institutional Animal Care and Use Committees at SUNY College of Optometry. Experiments were performed on retinas of wild type (WT), connexin knockout (KO) mice (Cx36^−/−, Cx45^−/−, and Cx36^−/−/45^−/− dKO), and their heterozygous (Het) littermates. The methods used to impale and label neurons have been described previously (Hu et al., J Neurosci 23:[…] (2003); Völgyi et al., Journal of Comparative Neurology 512:664-687 (2009)). Briefly, flattened retina-eyecups were placed in a superfusion chamber, which was mounted on the stage of a BX51WI light microscope (Olympus) within a light-tight Faraday cage. […] The retina-eyecups were superfused with a modified, oxygenated Ames medium maintained at 35° C.
Various methods were employed to produce cell death. (1) Single cell apoptosis: CytC was injected into individual RGCs or Müller cells for 15 minutes after which retinas were incubated for 4 hours in oxygenated Ames medium before fixation. After streptavidin histology, apoptotic cells were detected with an anti-active caspase 3 antibody or with Terminal deoxynucleotidyl transferase dUTP nick end labeling (TUNEL) staining. (2) Excitotoxicity: To assess the contribution of GJs to cell death within populations of RGCs and amacrine cells we conducted parallel experiments in which retinas were preincubated for 20 minutes in normal Ames medium or in one containing the GJ blockers meclofenamic acid (MFA; 50 μM) or 18-beta-glycyrrhetinic acid (18Beta-GA; 25 μM). Both control and drug-treated retinas were then exposed for 1 hour to NMDA (100-300 μM) to induce excitotoxicity followed by 4 hours in the control Ames solution. (3) Retinal ischemia: Transient in vivo retinal ischemia was induced by introducing into the anterior chamber a 33-gauge needle attached to a saline-filled reservoir (0.9% sodium chloride) that was raised above the animal so as to increase intraocular pressure (IOP) to a level […]. MFA (2 μl, 500 μM) was administered intravitreally either 30 minutes before or 3 and 24 hours following the ischemic insult. […]
Apoptotic and necrotic cell death were assessed by cell counts following: (1) staining with Live/Death Viability Assay (calcein AM/ethidium homodimer (EthD) (Invitrogen); (2) TUNEL, or, (3) labeling for activated caspase 3. For population studies, dead cells were counted manually within 500×500 μm areas (5 areas per retina) from micrographs of whole-mounts using images acquired by confocal microscope. Nuclear cell counts were made per unit length (500 μm) of frozen retinal cross-sections labeled with propidium iodide (2 μg/ml).

- RGC counts, MFA alone ([1]; injection of MFA alone in control eyes): no detectable effect
SMILES: Cc1ccc(Cl)c(Nc2ccccc2C(=O)O)c1Cl [MFA, meclofenamic acid]
- RGC cell counts ([1]; MFA (50 μM) before and after bead injection, 8 weeks, control 50±1, untreated bead-injected 33±1, p>0.1 vs control): 47±4
- loss of cells (RGC+dAC) in the GCL ([1]; intravitreal MFA, microbead-injected eyes, 8 weeks): prevents loss of cells in GCL
- cell viability, blocker alone [2]: did not affect cell viability
- cell death in the GCL induced by excitotoxicity ([2]; retinas preincubated in 18Beta-GA 25 μM or MFA 50 μM, then NMDA 100-300 μM 1 h, vs NMDA alone, p<0.001): significantly reduced
